From patent US8648076B2, “Cysteine protease inhibitors and their therapeutic applications” (Hybrigenics SA, priority 2005, dated 2014)
Read-outs that look alike come from different tables or passages of the source.

Key:
[1] = biological target: T1, USP5 (Homo sapiens, UniProt P45974); test: USP5 activity assay; assay type: biochemical; settings: 400 nM Ub-AMC, 300 pM enzyme, 30 min pre-incubation at 25° C., 60 min at 37° C.; sigmoidal fit; AF: Autofluorescent; read-out: USP 5 (inhibition of cysteine protease activity)
T1 sequence (P45974 1-858): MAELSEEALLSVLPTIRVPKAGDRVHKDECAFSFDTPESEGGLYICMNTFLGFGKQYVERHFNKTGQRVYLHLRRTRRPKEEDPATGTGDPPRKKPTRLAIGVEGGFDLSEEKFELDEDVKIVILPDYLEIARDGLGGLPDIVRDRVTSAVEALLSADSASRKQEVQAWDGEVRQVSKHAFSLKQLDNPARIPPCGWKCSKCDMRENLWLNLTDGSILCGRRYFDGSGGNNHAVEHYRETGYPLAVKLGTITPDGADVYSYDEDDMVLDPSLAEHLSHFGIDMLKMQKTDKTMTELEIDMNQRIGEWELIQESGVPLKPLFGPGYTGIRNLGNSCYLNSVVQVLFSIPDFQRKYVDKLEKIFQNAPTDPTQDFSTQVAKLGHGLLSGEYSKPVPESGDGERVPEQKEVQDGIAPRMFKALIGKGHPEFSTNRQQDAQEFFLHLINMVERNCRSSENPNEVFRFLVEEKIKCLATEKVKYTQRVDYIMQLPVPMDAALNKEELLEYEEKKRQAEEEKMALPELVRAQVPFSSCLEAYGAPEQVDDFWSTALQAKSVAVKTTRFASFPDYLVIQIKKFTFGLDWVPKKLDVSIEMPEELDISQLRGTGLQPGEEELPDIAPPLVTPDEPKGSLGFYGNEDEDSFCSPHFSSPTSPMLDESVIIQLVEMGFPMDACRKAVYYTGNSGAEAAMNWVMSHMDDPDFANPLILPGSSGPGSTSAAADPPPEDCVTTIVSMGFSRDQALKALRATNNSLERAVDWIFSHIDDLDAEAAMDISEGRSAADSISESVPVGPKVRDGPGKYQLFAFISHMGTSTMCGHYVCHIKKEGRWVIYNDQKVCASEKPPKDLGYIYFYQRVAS
Procedure: Bovine Serum Albumin 0.05 mg·ml^−1 pH7.6). Compounds stocks (100 mM) were stored at −20° C. in DMSO. […] Reactions were performed as duplicates in Black LJL 96 well plates (HE microplates; Molecular Devices; 20 μl final reaction volume). The substrate concentration for USP5 was 400 nM Ub-AMC (Boston Biochem). The concentrations of the enzyme (USP5) in specificity assays was 300 pM. The concentrations were determined in order to perform specificity assays under initial velocities at fixed substrate concentration. Compounds were pre-incubated with enzymes for 30 minutes at 25° C. Reactions were initiated by addition of substrate to the plates containing the enzymes (+/− compounds) diluted in assay buffer. Reactions were incubated for 60 minutes at 37° C. Reactions were stopped by adding acetic acid (100 mM final). Readings were performed on a Pherastar Fluorescent Reader (BMG). λ Emission 380 nm; λ Excitation=460 nm. Data (mean values +/− standard deviation) were analyzed as % of control (no compound) and plotted as percentage versus the Log of the compound concentration using GraphPad (Prism). Data were fitted to a sigmoidal model (variable slope).

[2] = biological target: T2, Caspase 3 (Homo sapiens, UniProt P42574); test: Caspase 3 activity assay; assay type: biochemical; settings: 500 nM Ac-DEVD-AMC, 3.2 nM enzyme, 30 min pre-incubation at 25° C., 60 min at 37° C.; sigmoidal fit; AF: Autofluorescent; read-out: Casp3 (inhibition of cysteine protease activity)
T2 sequence (P42574 29-175 limits assumed): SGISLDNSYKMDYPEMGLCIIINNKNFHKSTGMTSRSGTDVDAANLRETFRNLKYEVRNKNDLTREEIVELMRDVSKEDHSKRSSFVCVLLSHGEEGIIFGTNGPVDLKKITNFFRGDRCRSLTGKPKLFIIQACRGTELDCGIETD
T2 sequence (P42574 176-277 limits assumed): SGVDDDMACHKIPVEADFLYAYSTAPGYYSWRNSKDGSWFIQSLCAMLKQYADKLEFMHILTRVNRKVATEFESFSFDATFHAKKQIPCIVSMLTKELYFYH
Procedure: Compounds stocks (100 mM) were stored at −20° C. in DMSO. […] Reactions were performed as duplicates in Black LJL 96 well plates (HE microplates; Molecular Devices; 20 μl final reaction volume). The substrate concentration for caspase 3 specificity assay was 500 nM (Ac-DEVD-AMC; Promega). […] The concentrations were determined in order to perform specificity assays under initial velocities at fixed substrate concentration. Compounds were pre-incubated with enzymes for 30 minutes at 25° C. Reactions were initiated by addition of substrate to the plates containing the enzymes (+/−compounds) diluted in assay buffer. Reactions were incubated for 60 minutes at 37° C. Reactions were stopped by adding acetic acid (100 mM final). Readings were performed on a Pherastar Fluorescent Reader (BMG). δ Emission 380 nm; δ Excitation=460 nm. Data (mean values+/− standard deviation) were analyzed as % of control (no compound) and plotted as percentage versus the Log of the compound concentration using GraphPad (Prism). Data were fitted to a sigmoidal model (variable slope).

[3] = biological target: T3, USP7 (Homo sapiens, UniProt Q93009); test: USP7 activity assay; assay type: biochemical
T3 construct: His tag (from pFastBac-HT vector) (N); made in house; host or cells: insect cells (Sf9 or High Five), baculovirus
T3 sequence (Q93009 whole entry): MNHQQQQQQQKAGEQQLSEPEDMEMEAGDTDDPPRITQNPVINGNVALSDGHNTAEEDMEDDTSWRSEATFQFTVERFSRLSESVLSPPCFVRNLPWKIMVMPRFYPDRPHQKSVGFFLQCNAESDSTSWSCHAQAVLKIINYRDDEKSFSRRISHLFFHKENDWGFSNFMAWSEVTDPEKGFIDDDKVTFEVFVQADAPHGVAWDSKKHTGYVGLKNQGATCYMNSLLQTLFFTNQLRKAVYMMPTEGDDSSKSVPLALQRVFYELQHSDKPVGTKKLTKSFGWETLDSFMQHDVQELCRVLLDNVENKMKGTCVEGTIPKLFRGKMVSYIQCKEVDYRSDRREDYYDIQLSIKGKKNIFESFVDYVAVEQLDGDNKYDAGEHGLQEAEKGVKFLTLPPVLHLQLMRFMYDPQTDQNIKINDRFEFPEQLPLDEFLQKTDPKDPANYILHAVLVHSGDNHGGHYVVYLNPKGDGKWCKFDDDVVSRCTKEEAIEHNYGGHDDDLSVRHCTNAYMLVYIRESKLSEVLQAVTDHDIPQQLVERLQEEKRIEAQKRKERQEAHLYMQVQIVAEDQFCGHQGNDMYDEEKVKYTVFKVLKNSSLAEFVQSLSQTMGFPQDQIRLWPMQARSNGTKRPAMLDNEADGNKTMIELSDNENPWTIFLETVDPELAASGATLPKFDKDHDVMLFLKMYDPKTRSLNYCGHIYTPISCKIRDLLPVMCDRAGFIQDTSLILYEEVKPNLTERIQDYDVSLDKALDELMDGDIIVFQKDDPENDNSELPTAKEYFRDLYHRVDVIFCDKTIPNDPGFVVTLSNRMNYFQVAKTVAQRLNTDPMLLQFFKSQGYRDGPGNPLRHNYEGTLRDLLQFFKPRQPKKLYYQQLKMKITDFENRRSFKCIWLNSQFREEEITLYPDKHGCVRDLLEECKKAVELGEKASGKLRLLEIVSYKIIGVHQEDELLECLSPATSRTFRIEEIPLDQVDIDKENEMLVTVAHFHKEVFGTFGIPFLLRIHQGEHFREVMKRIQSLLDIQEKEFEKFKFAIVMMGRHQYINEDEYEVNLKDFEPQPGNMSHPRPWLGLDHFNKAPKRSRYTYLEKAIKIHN

[4] = system: HCT116 colon cancer cells; test: HCT116 cell viability and proliferation assay (MTS); assay type: cell-based; settings: Homo sapiens, read-out: HCT116 D3 GI50
[5] = 400 nM Ub-AMC, 152 pM enzyme, 30 min pre-incubation at 25° C., 60 min at 37° C., sigmoidal fit, read-out: USP 7 (inhibition of cysteine protease activity)
[6] = HCT-116, HCT116 cells, 72 hours incubation, MTS, mean of 3 independent experiments

Structure (SMILES) | IC50 [1] | IC50 [2] | IC50 [3] | GI50 ([4]; HCT-116, 72 h) | IC50 [3, 5] | GI50 [4, 6]
CCc1ccc2c(c1)-c1nc(C#N)c(C#N)nc1C2=O [Example 32, 6-ethyl-9-oxo-9H-indeno[1,2-b]pyrazine-2,3-dicarbonitrile] | 1670 nM | 3600 nM | 2590 nM | 385 nM | – | –
COCCON=C1c2ccccc2-c2nc(C(N)=O)c(C#N)nc21 [Example 34c, 2-Cyano-9-(2-methoxy-ethoxyimino)-9H-indeno[1,2-b]pyrazine-3-carboxylic acid amide] | 606 nM | 1220 nM | 2880 nM | 378 nM | – | –
N#CNc1nc2c(nc1C#N)C(=O)c1ccccc1-2 [Example 21, 2-cyano-9-oxo-9H-indeno[1,2-b]pyrazin-3-yl-cyanamide] | > 100000 nM | > 100000 nM | – | – | > 100000 nM | > 10000 nM
CCON=C1c2ccccc2-c2nc(C(N)=O)c(C#N)nc21 [Example 34b, 2-Cyano-9-ethoxyimino-9H-indeno[1,2-b]pyrazine-3-carboxylic acid amide] | 523 nM | 624 nM | 2510 nM | 469 nM | – | –
CON=C1c2ccccc2-c2nc(C(N)=O)c(C#N)nc21 [Example 34d, 2-Cyano-9-methoxyimino-9H-indeno[1,2-b]pyrazine-3-carboxylic acid amide] | 113 nM | 131 nM | 396 nM | 916 nM | – | –
CN(C)c1nc2c(nc1C#N)C(=O)c1ccccc1-2 [Example 4, 3-dimethylamino-9-oxo-9H-indeno[1,2-b]pyrazine-2-carbonitrile] | > 100000 nM | > 100000 nM | – | – | > 100000 nM | > 10000 nM
N#Cc1nc2c(nc1C#N)-c1ccccc1C2=Nc1ccccc1 (mixture of isomers) [Example 14, 9-[phenylimino]-9H-indeno[1,2-b]pyrazine-2,3-dicarbonitrile] | 1900 nM | 1300 nM | – | – | 4100 nM | 430 nM
N#Cc1nc2c(nc1C#N)-c1ccc(Cl)cc1C2=NNC(N)=O [Example 43, 9-[(aminocarbonyl)hydrazono]-7-chloro-9H-indeno[1,2-b]pyrazine-2,3-dicarbonitrile] | > 100000 nM | 64900 nM | > 100000 nM | 512 nM | – | –
CCSc1nc2c(nc1C#N)C(=O)c1ccccc1-2 [Example 23, 3-ethylsulfanyl-9-oxo-9H-indeno[1,2-b]pyrazine-2-carbonitrile] | > 100000 nM | > 100000 nM | – | – | > 100000 nM | > 10000 nM
COc1ccc(OC)c2c1C(=O)c1nc(C#N)c(C#N)nc1-2 [Example 17f, 5,8-Dimethoxy-9-oxo-9H-indeno[1,2-b]pyrazine-2,3-dicarbonitrile] | 3300 nM | 2000 nM | – | – | 12700 nM | 930 nM
N#Cc1nc2sc3ccccc3c2nc1C#N [Example 19, benzo[4,5]thieno[2,3-b]pyrazine-2,3-dicarbonitrile] | > 100000 nM | > 100000 nM | – | – | > 100000 nM | 10000 nM
COc1nc2c(nc1C#N)C(=O)c1ccccc1-2 [Example 3, 3-methoxy-9-oxo-9H-indeno[1,2-b]pyrazine-2-carbonitrile] | > 100000 nM | > 100000 nM | – | – | > 100000 nM | > 10000 nM
C=CCON=C1c2ccc(Cl)cc2-c2nc(C#N)c(C#N)nc21 [Example 27c, 9-Allyloxyimino-6-chloro-9H-indeno[1,2-b]pyrazine-2,3-dicarbonitrile] | 1700 nM | 2830 nM | 3500 nM | 421 nM | – | –
N#Cc1nc2c(nc1C(N)=O)-c1ccccc1/C2=N\O [Example 11, 2-cyano-9-[hydroxyimino]-9H-indeno[1,2-b]pyrazine-3-carboxylic acid amide] | 2100 nM | 2300 nM | – | – | 13000 nM | 1600 nM
CCON=C1c2ccccc2-c2nc(C#N)c(C#N)nc21 (mixture of isomers) [Example 13d, 9-Ethoxyimino-9H-indeno[1,2-b]pyrazine-2,3-dicarbonitrile] | > 100000 nM | > 100000 nM | – | – | > 100000 nM | 1180 nM
N#Cc1nc2c(nc1C#N)-c1ccc(F)cc1C2=O [Example 17h, 7-Fluoro-9-oxo-9H-indeno[1,2-b]pyrazine-2,3-dicarbonitrile] | 1000 nM | 1000 nM | – | – | 4300 nM | 160 nM
N#Cc1nc2c(nc1C#N)-c1ccc(Cl)cc1C2=NOCCOc1ccccc1 [Example 27b, 7-Chloro-9-(2-phenoxy-ethoxyimino)-9H-indeno[1,2-b]pyrazine-2,3-dicarbonitrile] | > 100000 nM | > 100000 nM | > 100000 nM | 294 nM | – | –
COc1ccc2c(c1OC)C(=O)c1nc(C#N)c(C#N)nc1-2 [Example 17d, 7,8-Dimethoxy-9-oxo-9H-indeno[1,2-b]pyrazine-2,3-dicarbonitrile] | 2500 nM | 1800 nM | – | – | 18000 nM | 680 nM
C=CCON=C1c2ccccc2-c2nc(C(N)=O)c(C#N)nc21 [Example 34a, 9-Allyloxyimino-2-cyano-9H-indeno[1,2-b]pyrazine-3-carboxylic acid amide] | 143 nM | 245 nM | 500 nM | 496 nM | – | –
N#Cc1nc2c(nc1N)-c1ccccc1C2=O [Example 7, 3-amino-9-oxo-9H-indeno[1,2-b]pyrazine-2-carbonitrile] | > 100000 nM | > 100000 nM | – | – | > 100000 nM | > 10000 nM
COc1cc2c(cc1OC)-c1nc(C#N)c(C#N)nc1C2=O [Example 17b, 6,7-Dimethoxy-9-oxo-9H-indeno[1,2-b]pyrazine-2,3-dicarbonitrile] | > 100000 nM | 51000 nM | – | – | 10200 nM | 530 nM
Cc1c(F)ccc2c1C(=O)c1nc(C#N)c(C#N)nc1-2 [Example 30, 7-Fluoro-8-methyl-9-oxo-9H-indeno[1,2-b]pyrazine-2,3-dicarbonitrile] | 1610 nM | 1070 nM | – | – | 2220 nM | 705 nM
